Test results as given in US9289411B2, “Anti-HCV agent” (NATIONAL UNIVERSITY CORPORATION OKAYAMA UNIVERSITY, priority 2011, dated 2016).
Where two headings read alike, the source gives them in different places.

How the values were obtained:
ORL8 cells = experiment: Cytotoxic effect, WST-1 cell proliferation assay in ORL8 cells; details: ORL8 cells
Description: Assay systems using OR6 cells (HCV-O strain), 1B-4R cells (HCV-1B-4 strain), and AH1R cells (HCV-AH1R strain) as HuH-7 cell-derived full-length HCV-RNA-replicating cells, and ORL8 cells (HCV-O strain), ORL11 cells (HCV-O strain), 1B-4RL cells (HCV-1B-4 strain), and KAH5RL cells (HCV-KAH5 strain) as Li23 cell-derived full-length HCV-RNA-replicating cells were used for the quantitative analysis of anti-HCV activity and evaluation of a cytotoxic effect in the present invention. The three cell lines, i.e., the 1B-4R cells, the 1B-4RL cells, and the KAH5RL cells have been disclosed in WO 2010/026965 A1. The AH1R cells may be produced with reference to Mori K et al., BBRC, 371:104-109, 2008 and WO 2010/026965 A1. In addition, all the HCV strains belong to genotype 1b.
In the measurement of the renilla luciferase activity and the measurement by the WST-1 method, experiments were performed in three wells independent of each other, and their means and standard deviation were calculated.
The cytotoxic effects of N-89 and N-251 were examined using ORL8 cells and the CC50 values were calculated. An experimental scale and schedule are the same as those in Example 1.
N-89 and N-251 were added so as to achieve concentrations of 5 μM, a 2-fold dilution series from 5 μM (2.5, 1.3, 0.63, 0.31, 0.16, and 0.08 μM), and 0. The WST-1 cell proliferation assay was performed 72 hours after the culture.
The cytotoxic effect of artemisinin was examined using OR6 and ORL8 cells and the CC50 values were calculated. An experimental scale and schedule are the same as those in Example 1. Artemisinin was added so as to achieve concentrations of 400 μM, a 2-fold dilution series from 400 μM (200, 100, 50, 25, and 13 μM), and 0. The WST-1 cell proliferation assay was performed 72 hours after the culture.

[1] = system: HCV-RNA replication in AH1R cells (HCV-AH1 strain, HuH-7-derived); experiment: microbe, parasite or virus in culture; format: cell-based, HCV genotype 1b; details: for EC50: Hepatitis C virus, 72 hours, renilla luciferase activity
Description: (§2) Assay systems using OR6 cells (HCV-O strain), 1B-4R cells (HCV-1B-4 strain), and AH1R cells (HCV-AH1R strain) as HuH-7 cell-derived full-length HCV-RNA-replicating cells, and ORL8 cells (HCV-O strain), ORL11 cells (HCV-O strain), 1B-4RL cells (HCV-1B-4 strain), and KAH5RL cells (HCV-KAH5 strain) as Li23 cell-derived full-length HCV-RNA-replicating cells were used for the quantitative analysis of anti-HCV activity and evaluation of a cytotoxic effect in the present invention. […] In addition, all the HCV strains belong to genotype 1b.
(§3) As necessary, an increase or decrease in expression level of an HCV protein (core protein) was examined by a Western blot method.
N-89 was added so as to achieve concentrations of 500 nM, a 2-fold dilution series from 500 nM (250, 125, 63, 31, 16, and 8 nM), and 0. The luciferase activities were measured 72 hours after the culture.
N-251 was added so as to achieve concentrations of 2 μM, a 2-fold dilution series from 2 μM (1, 0.5, 0.25, 0.13, 0.06, and 0.03 μM), and 0. The luciferase activities were measured 72 hours after the culture.

[2] = system: HCV-RNA replication in 1B-4R cells (HCV-1B-4 strain, HuH-7-derived); experiment: microbe, parasite or virus in culture; format: cell-based, HCV genotype 1b; details: for EC50: Hepatitis C virus, 72 hours, renilla luciferase activity
Description: as §2, §3
The luciferase activities were measured 72 hours after the culture.

[3] = system: HCV-RNA replication in KAH5RL cells (HCV-KAH5 strain, Li23-derived); experiment: microbe, parasite or virus in culture; format: cell-based, HCV genotype 1b; details: for EC50: Hepatitis C virus, 72 hours, renilla luciferase activity
Description: N-89 was added so as to achieve concentrations of 10 μM, a 2-fold dilution series from 10 μM (5, 2.5, 1.3, 0.63, 0.31, and 0.16 μM), and 0. The luciferase activities were measured 72 hours after the culture.
N-251 was added so as to achieve concentrations of 5 μM, a 2-fold dilution series from 5 μM (2.5, 1.3, 0.63, 0.31, 0.16, and 0.08 μM), and 0. The luciferase activities were measured 72 hours after the culture.

[4] = system: HCV core protein in OR6 cells; experiment: Western blot analysis of HCV core protein expression in OR6 cells; format: cell-based, HCV genotype 1b; details: 72 hours, N-89 0.31-20 μM, N-251 0.16-10 μM
Description: (§1) N-89 and N-251 were diluted with DMSO. After 72 hours, sampling was performed with 100 μL of 2×SDS buffer. 10 μL of a sample were applied to SDS-PAGE electrophoresis and subjected to Western blot analysis using an anti-HCV core antibody and an anti-β-actin antibody according to a conventional method. For the detection of β-actin, a sample diluted 10-fold with 2×SDS buffer in advance was used because the expression amount of β-actin was high.

[5] = system: HCV core protein in ORL8 cells; experiment: Western blot analysis of HCV core protein expression in ORL8 cells; format: cell-based, HCV genotype 1b; details: 72 hours, 0.078-5 μM
Description: as §1, with “Sampling” for “After 72 hours, sampling”, “buffer 72 hours after the culture.” for “buffer.”, “It should be noted that for” for “For”, “used.” for “used because the expression amount of β-actin was high.”

renilla luciferase = experiment: Influence on renilla luciferase activity in lysate of OR6 cells; format: biochemical; details: OR6 cell lysate, concentrations of up to 20 μM
Description: Thus, N-89 or N-251 was added (5 μL) to a lysate (10 μL) of the ORL8 cells (1×10^5 cells, medium for Li23 cell line) so as to achieve final concentrations of 0, 5, 10, and 20 μM, and 50 μL of a substrate were further added thereto. Then, the luciferase activity was measured.
Also in OR6 cells (medium for HuH-7 cell line), the renilla luciferase activity was measured by the same technique as in Example 6.
An actual luciferase activity value (RL activity value) at 100% on the ordinate axis was 1.1×10^6 in both of N-89 and N-251.

Row | Structure (SMILES) | cytotoxicity at 1 μM (WST-1 assay) (ORL8 cells) | SI (CC50/EC50) [1] | EC50 [1] [nM] | SI (CC50/EC50) ([1]; listed as N89) | SI (CC50/EC50) [2] | EC50 [2] [nM] | SI (CC50/EC50) [3] | EC50 [3] [nM] | level of the HCV core protein (Western blot) [4] | level of the HCV core protein (Western blot) [5] | inhibition on the renilla luciferase activity (renilla luciferase) | CC50 (ORL8 cells; 72 hours, WST-1) [nM]
1 | C1CCCCCC2(CCCCC1)OOCCCOO2 [N-89, 1,2,6,7-tetraoxaspiro[7,11]nonadecane] | not exhibiting cytotoxicity | about 20 | 25 | ~20 | 22 | 420 | 13 | 190 | reduced depending on the concentrations | reduced depending on the concentrations | did not show any inhibition | 
2 | OCCCCCCC1COOC2(CCCCCCCCCCC2)OOC1 [N-251, 6-(1,2,6,7-tetraoxaspiro[7,11]nonadec-4-yl)] | not exhibiting cytotoxicity | 3.5 | 140 |  | 3.9 | 980 | 11 | 290 | reduced depending on the concentrations | reduced depending on the concentrations | did not show any inhibition | 1300
